The source of these data is US7320973B2, “Dihydrodiaryloxazepine derivative and pharmaceutical composition containing the same” (Ajinomoto Co., Inc., priority 2001, dated 2008).

Test [1] deals with abdominal pain threshold on colorectal distension. Nature of the test: Elevation of threshold value of abdominal pain in in vivo rat colorectal distension model. The following applies: rats, oral administration. As for the experimental part: The tests were conducted by a method of Saito et al. (Anesth. Analg. 1998; 87: 382-387).
Male Crj:CD rats (250-350 g) were used. A test compound was orally administered to them (n=8). A balloon (length: 7 cm) for dilating the colon was connected to a transducer . After fasting each rat for one day, the balloon was noninvasively inserted internally into the colorectal portion and the base of the balloon was positioned 1 cm from anus under light anesthesia with ether. Water was injected into the balloon at a rate of 0.9 ml/min until the inner pressure in the balloon reached 100 mmHg (cut off value). When the contraction of the abdominal muscle was macroscopically observed during the colon distension, the pressure in the balloon was taken as the threshold value of abdominal pain. The colon distension was conducted at intervals of at least 5 minutes.
The analgesic effect was determined according to the following formula: Analgesic effect (%)=[(threshold value of abdominal pain after treatment with test compound)−(threshold value of abdominal pain before treatment with test compound)]/[100−(threshold value of abdominal pain before treatment with test compound)]×100.
The analgesic effect was calculated as the dose of the test compound required for 50% control (ID50).

The subject of test [2] is 5-HTP-induced defecation (diarrhea or loose stool). As to the kind of experiment: In vivo 5-hydroxytryptophan (5-HTP)-induced defecation model of mice. Also on record: species or system mouse. The following applies: oral administration 30 minutes before 5-HTP 10 mg/kg s.c., fecal score over 30 minutes. As for the experimental part: The tests were conducted by a method of G. J. Sanger et al. (British Journal of Pharmacology, 130: 706-712, 2000).
Male SLC:ICR mice (6 weeks old) were moved to 5stainless steel cages connected together for mice. After the naturalization for at least one hour, a test compound was orally administered (n=10). 30 minutes after, 10 mg/5 mL/kg of 5-HTP or vehicle (5mL/kg of physiological saline for a group for which 5-HTP was not used) was injected subcutaneously. The state of the fecal pellets of each mouse excreted in 30 minutes immediately after the injection was observed [scored as 0 (normal fecal pellets or no fecal pellets) or 1(diarrhea or loose stool)]. The score obtained by subtracting the score of the group to which 5-HTP had not been given from the score of the group to which 5-HTP had been given was taken as 100%. The amount of a test compound for 50% control (ID50) was calculated.

Structures can show the parent of a compound that is named as a salt.

In the case of `CN(C)c1ccc(CCN2CCC[C@@H]2CN2c3cc(Cl)ccc3COc3ccccc32)cc1` [Example 8, (R)-3-Chloro-5,11-dihydro-5-[1-(4-dimethylaminophenethyl)pyrrolidin-2-ylmethyl]dibenzo[b,e][1,4]oxazepine dihydrochloride], in test [1], the “ID50 (analgesic effect, threshold value of abdominal pain)” value is given as 2.6 mg/kg. In test [2], the “ID50 (5-HTP-induced defecation)” value stood at 8.3 mg/kg.
As for `Fc1ccc2c(c1)OCc1ccccc1N2C[C@H]1CCCN1CCc1ccc(N2CCCC2)cc1` [Example 12, (R)-8-Fluoro-5,11-dihydro-5-[1-(4-pyrrolidinophenethyl)pyrrolidin-2-yl-methyl]dibenzo[b,e]1,4]oxazepine dihydrochloride], in test [1], the “ID50 (analgesic effect, threshold value of abdominal pain)” value came to 1.9 mg/kg.
